Consider one compound from PMC10657792, “Downstream Allosteric Modulation of NMDA Receptors by 3-Benzazepine Derivatives” (Molecular Neurobiology, 2023).

The structures appear in SMILES notation.

In experiment [1] the target is GluN1a wt/ GluN2B E236A (Rattus norvegicus, UniProt P35439+Q00960, E236A). The experiment is described as follows: TEVC recording in X. laevis oocytes, GluN2B mutant screening. The experiment is classed as cell-based. The note with it: fitted curve.
Experiment [2] concerns the target GluN1b wt/ GluN2B F176A (Rattus norvegicus, UniProt P35439+Q00960, F176A). The description is as above. Format: cell-based. As for the experimental part: Single point mutations were incorporated into template DNA (GluN1-1b wt/ pSGEM and GluN2B wt/ pSGEM) by using the QuikChange II XL site-directed mutagenesis kit (Agilent Technologies, Germany). Mutagenesis primers were designed using the QuikChange Primer Design Program (Agilent) and provided by Microsynth (Microsynth AG, Balgach, Switzerland). For mutation of the desired amino acid in the gene, PCR amplification was performed with the respective mutagenesis primers (Eppendorf MasterCycler Gradient, Eppendorf Hamburg, Germany). Mutations were verified by automated DNA sequencing. Constructs were linearized with PacI (GluN1) or NheI (GluN2B). cRNA was prepared byin vitrotranscription using the mMessage mMachine T7 kit (Life Technologies, Darmstadt, Germany).
The NMDAR was expressed in stage V and VI oocytes originated from X. laevis. Oocytes were provided by Ecocyte Bioscience (Dortmund, Germany), and equimolar amounts of wild-type and mutated GluN1 and GluN2B cRNA were injected (0.8 ng each). The oocytes were incubated in Barth’s solution, containing (mmol l^−1): 88 NaCl, 1 KCl, 0.4 CaCl2, 0.33 Ca(NO3)2, 0.6 MgSO4, 5 TRIS–HCl, 2.4 NaHCO3, supplemented with 80 mg l^−1 theophylline, 63 mg l^−1 benzylpenicillin, 40 mg l^−1 streptomycin, and 100 mg l^−1 gentamycin and maintained at 18 °C until usage. After injection, the oocytes were incubated for 5 days at 18 °C. Subsequently, the activity of the expressed NMDARs in the oocytes was recorded by two-electrode voltage clamp (TEVC).
The compounds were retrieved as 10 mM stock solutions in DMSO and were subsequently diluted with agonist solution and adjusted to 0.1% DMSO concentration. Inhibition of each compound was measured via TEVC in X. laevis oocytes at room temperature using a Turbo Tec 10CX amplifier (NPI electronic, Tamm, Germany), NI USB 6221 DA/AD Interface (National Instruments, Austin, USA), and GePulse Software (Dr. Michael Pusch, Genova, Italy). Ba^2+-Ringer, consisting of 10 mM HEPES, 90 mM NaCl, 1 mM KCl, and 1.5 mM BaCl2, adjusted to pH 7.4, was used for TEVC measurements. Agonist solution containing 10 µM glycine and 10 µM (S)-glutamate was prepared in Ba^2+-Ringer, and the measurements were performed at a holding potential of − 70 mV, using electrodes with a glass capillary filled with 3 M KCl and a resistance between 0.5 and 1.5 MΩ. The compounds were tested by applying ascending concentrations, ranging from 1 to 30,000 nM, in at least six oocytes. Example traces for all recorded conditions can be found in Supplementary Figs. S2–S9.
TEVC data were analyzed using Ana (Dr. Michael Pusch, Genova, Italy), and statistics were performed using OriginPro 2020 (OriginLab Corporation, Northampton, USA). The inhibitory effect of each compound is calculated using the following equation: inhibition=1-Ic-Ih/Ia-Ih where Ih describes the current in the absence of agonists; Ia represents the steady-state current in the presence of the agonists; and Ic is defined as the steady-state after binding of agonist and compound. All dose response curves are fitted to the following logistic equation: y=A1-A2/1+x/x0^p+A2 where A1 describes the minimal inhibition of a compound and was set to 0; A2 represents the maximal inhibition of a compound; p is the slope of the curve; x0 is defined as the concentration at half-maximal inhibition; and x is the tested concentration. Data were statistically analyzed by one-way ANOVA and Tukey post-hoc mean comparison test in OriginPro 2020 (OriginLab Corporation, Northampton, USA). p values are indicated by * for p < 0.05, ** for p < 0.01, and *** for p < 0.001.

Sequence of GluN1b wt/ GluN2B F176A (Q00960 27-1482 F176A, other chains not shown): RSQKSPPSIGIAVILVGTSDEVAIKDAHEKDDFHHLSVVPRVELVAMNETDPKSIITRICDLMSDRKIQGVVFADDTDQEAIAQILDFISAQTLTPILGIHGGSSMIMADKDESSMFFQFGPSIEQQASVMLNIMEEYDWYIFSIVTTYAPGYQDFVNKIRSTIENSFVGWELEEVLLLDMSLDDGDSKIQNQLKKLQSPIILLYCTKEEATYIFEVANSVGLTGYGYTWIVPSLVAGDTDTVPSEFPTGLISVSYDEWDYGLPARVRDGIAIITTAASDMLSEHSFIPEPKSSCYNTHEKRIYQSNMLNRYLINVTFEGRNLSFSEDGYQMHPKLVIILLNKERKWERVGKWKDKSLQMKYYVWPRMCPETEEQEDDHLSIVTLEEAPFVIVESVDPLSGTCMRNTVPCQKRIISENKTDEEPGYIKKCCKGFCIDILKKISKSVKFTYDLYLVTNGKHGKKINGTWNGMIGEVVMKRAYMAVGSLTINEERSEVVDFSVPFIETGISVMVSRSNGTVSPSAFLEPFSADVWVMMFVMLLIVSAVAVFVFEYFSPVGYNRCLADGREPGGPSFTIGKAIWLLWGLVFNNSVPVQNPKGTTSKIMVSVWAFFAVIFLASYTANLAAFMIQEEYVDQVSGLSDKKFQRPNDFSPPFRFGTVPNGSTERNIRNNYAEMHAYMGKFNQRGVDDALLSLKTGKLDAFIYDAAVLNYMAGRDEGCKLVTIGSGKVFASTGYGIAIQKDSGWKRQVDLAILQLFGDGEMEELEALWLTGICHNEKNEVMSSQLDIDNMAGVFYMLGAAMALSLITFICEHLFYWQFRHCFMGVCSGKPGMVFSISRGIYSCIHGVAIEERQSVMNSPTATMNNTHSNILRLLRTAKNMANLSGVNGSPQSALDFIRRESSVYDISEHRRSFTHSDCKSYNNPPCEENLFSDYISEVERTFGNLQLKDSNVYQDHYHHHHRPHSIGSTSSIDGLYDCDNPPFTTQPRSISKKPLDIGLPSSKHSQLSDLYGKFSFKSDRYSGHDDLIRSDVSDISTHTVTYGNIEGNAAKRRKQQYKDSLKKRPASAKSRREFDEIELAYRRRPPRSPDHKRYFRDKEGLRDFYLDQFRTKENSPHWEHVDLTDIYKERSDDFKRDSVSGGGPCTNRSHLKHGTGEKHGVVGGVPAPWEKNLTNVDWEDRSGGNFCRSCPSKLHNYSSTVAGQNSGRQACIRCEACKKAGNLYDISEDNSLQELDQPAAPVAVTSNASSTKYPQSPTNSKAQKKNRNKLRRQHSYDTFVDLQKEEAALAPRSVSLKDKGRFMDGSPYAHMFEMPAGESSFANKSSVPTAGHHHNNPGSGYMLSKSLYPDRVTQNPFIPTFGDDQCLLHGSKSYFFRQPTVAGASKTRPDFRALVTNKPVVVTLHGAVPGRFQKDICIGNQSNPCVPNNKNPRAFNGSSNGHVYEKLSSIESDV
Sequence of GluN1a wt/ GluN2B E236A (Q00960 27-1482 E236A, other chains not shown): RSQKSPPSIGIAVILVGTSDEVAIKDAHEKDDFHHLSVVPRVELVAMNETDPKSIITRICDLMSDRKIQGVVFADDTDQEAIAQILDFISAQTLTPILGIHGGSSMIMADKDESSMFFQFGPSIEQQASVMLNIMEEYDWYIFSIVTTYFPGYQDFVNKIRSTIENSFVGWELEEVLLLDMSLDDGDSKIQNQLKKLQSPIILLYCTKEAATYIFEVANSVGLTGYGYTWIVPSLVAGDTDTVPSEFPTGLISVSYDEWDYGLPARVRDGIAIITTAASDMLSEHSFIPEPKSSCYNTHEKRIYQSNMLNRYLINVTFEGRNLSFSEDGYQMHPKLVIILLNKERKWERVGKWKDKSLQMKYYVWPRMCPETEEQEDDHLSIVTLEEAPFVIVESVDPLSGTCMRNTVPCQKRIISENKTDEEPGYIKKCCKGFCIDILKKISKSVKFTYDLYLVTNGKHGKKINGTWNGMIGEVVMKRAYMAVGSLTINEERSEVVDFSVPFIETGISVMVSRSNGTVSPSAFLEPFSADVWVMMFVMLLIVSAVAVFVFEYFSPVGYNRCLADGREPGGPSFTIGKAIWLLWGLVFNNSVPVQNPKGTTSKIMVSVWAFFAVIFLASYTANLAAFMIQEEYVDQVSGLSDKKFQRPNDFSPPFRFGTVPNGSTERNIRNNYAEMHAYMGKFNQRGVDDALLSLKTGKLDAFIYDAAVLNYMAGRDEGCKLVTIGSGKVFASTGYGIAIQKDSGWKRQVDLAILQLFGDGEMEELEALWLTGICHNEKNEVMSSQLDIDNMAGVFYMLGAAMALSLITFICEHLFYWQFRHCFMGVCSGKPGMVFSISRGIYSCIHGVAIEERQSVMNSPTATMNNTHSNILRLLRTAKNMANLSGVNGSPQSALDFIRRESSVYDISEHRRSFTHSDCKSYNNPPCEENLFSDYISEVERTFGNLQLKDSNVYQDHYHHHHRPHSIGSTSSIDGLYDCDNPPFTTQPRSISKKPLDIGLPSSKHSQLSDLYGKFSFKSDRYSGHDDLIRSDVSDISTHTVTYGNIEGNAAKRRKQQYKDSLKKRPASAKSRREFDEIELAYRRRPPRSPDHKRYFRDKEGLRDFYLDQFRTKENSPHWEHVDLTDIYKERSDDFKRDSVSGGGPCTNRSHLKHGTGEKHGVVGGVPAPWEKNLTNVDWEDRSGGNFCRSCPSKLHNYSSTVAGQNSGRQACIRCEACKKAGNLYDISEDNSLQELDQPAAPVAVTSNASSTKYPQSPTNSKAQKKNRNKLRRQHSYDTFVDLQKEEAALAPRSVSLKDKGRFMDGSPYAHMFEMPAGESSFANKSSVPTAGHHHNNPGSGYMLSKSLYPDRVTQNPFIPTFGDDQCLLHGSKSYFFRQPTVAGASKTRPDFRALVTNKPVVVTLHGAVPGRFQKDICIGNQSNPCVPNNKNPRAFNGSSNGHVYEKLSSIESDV

For `Oc1ccc2c(c1)CCN(CCCCc1ccccc1F)C[C@@H]2O` [(R)-OF-NB1], the IC50 in experiment [1] (agonists 10 µM glycine + 10 µM (S)-glutamate) was determined as 232 nM; in experiment [2] (agonists 10 µM glycine + 10 µM (S)-glutamate, fitted curve) it was 13.6 µM. The Hill coefficient in experiment [1] is recorded as 1.1; in experiment [2] (fitted curve), 0.5. Further, in experiment [2] (GluN1-1b/F176A, compound concentration 1 μM, single oocytes), 1 µM produced 17.7% inhibition. In experiment [2] (GluN1-1b/F176A, compound concentration 10 μM, single oocytes), this compound had an inhibition at 10 µM of 29.9%.

As usually defined, the IC50 is the concentration needed to halve the response being measured. Broadly, the Hill coefficient is a measure of the steepness of the concentration-response curve. The inhibition is how much of the control response was suppressed. A low value points to a weak effect.
